Earlier results, collected in patent US20040029723A1, “Novel aminophosphonium compounds” (Clariant GmbH, priority 1999, published 2004).

Conditions: background statement, no test or data described

**Q.** With `CCN(CC)[P+](N(CC)CC)(N(CC)CC)N(CC)CC.[Br-]` [Tetrakis(diethylamino)phosphonium Bromide] as the compound, how does the dermal toxicity read?
**A.** very high
